Measured values as given in patent publication US12606561B2, “Substituted pyrazolo[1,5-a][1,3,5]triazines as CDK inhibitors” (QURIENT CO., LTD., priority 2018, dated 2026).

Assays:
Assay type in all cases: biochemical
[1] = target: T1, CDK1/Cyclin B (Homo sapiens, UniProt P06493); assay: Enzymatic assay for CDK1 (LANCE Ultra kinase assay, FRET based); conditions: ATP at Km; read-out: CDK1 enzymatic activity IC50
T1 construct: purchased Invitrogen PR4768C
Protocol: (§1) Enzymatic Binding Assay Protocol for CDK1, CDK2, CDK5 and CDK7
(§2) Inhibition activity of the respective compound on CDK kinase under Km value of ATP was tested in FRET based The LANCE® Ultra kinase assay (Perkin Elmer), which uses a ULight™-labeled peptide substrate and an appropriate Europium-labeled anti-phospho-antibody. […] After 1 min centrifugation at 1000 rpm, purified CDKs/Cyclin complex were added with the following concentrations respectively. […] Data were analyzed using XL Fit software.

[2] = target: T2, CDK5/p25 (Homo sapiens, UniProt Q00535); assay: Enzymatic assay for CDK5 (LANCE Ultra kinase assay, FRET based); conditions: ATP at Km
T2 construct: purchased Invitrogen PR8543B
Protocol: as §1
(§3) Inhibition activity of the respective compound on CDK kinase under Km value of ATP was tested in FRET based The LANCE® Ultra kinase assay (Perkin Elmer), which uses a ULight™-labeled peptide substrate and an appropriate Europium-labeled anti-phospho-antibody. Test compounds were made with DMSO solutions, and then 4-fold serial dilutions for 8 doses were prepared using automated liquid handler (POD™ 810, Labcyte) and 80 nL/well of diluted compound solutions were added into the 384-well plates (Greiner, Cat #784075). And then 68 nM of ULight-MBP peptide (Perkin Elmer, Cat #TRF0109-M) and 5 ul/well of ATP (Sigma, Cat #A7699) were added to the plate. After 1 min centrifugation at 1000 rpm, purified CDKs/Cyclin complex were added with the following concentrations respectively. 24 uM for CDK1/Cyclin B (Invitrogen, Cat #PR4768C), 22 uM for CDK2/Cyclin A (Invitrogen, Cat #PV6290), 10 uM for CDK5/p25 (Invitrogen, Cat #PR8543B) and […] for CDK7/Cyclin H/MNAT1 (Invitrogen, Cat #PR6749B) were added to each corresponding plate for CDK1, CDK2, CDK5 and CDK7. Incubate at 23° C. for 60 min and then Eu-labeled anti-phospho-Myelin Basic Protein (PE, Cat #TRF0201-M) and EDTA (Invitrogen, Cat #15575038) mixture in Lance Detection Buffer (Perkin Elmer, Cat #CR97100) was added in each well. After additional incubation at 23° C. for 60 min, test articles were measured the fluorescence using Envision leader (Perkin Elmer, USA) [Laser as excitation light; […] as the first and the second emission filter]. Data were analyzed using XL Fit software.

[3] = target: T3, CDK7/Cyclin H/MNAT1 (Homo sapiens, UniProt P50613); assay: Enzymatic assay for CDK7 (LANCE Ultra kinase assay, FRET based); conditions: for IC50: ATP at Km
T3 construct: purchased Invitrogen PR6749B
Protocol: as §1, §2

[4] = target: T4, CDK2/Cyclin A (Homo sapiens, UniProt P24941); assay: Enzymatic assay for CDK2 (LANCE Ultra kinase assay, FRET based); conditions: ATP at Km
T4 construct: purchased Invitrogen PV6290
Protocol: as §1, §3

T1 sequence (P06493 whole entry): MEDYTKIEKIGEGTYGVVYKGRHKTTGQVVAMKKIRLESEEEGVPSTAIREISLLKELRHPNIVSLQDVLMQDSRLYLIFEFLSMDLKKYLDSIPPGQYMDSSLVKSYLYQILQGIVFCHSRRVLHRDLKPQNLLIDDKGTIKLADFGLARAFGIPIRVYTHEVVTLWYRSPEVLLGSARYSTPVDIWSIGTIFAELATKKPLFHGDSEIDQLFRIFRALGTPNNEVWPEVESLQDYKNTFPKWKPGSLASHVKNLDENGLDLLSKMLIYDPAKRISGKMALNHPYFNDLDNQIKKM
T1 sequence (P14635 whole entry partner): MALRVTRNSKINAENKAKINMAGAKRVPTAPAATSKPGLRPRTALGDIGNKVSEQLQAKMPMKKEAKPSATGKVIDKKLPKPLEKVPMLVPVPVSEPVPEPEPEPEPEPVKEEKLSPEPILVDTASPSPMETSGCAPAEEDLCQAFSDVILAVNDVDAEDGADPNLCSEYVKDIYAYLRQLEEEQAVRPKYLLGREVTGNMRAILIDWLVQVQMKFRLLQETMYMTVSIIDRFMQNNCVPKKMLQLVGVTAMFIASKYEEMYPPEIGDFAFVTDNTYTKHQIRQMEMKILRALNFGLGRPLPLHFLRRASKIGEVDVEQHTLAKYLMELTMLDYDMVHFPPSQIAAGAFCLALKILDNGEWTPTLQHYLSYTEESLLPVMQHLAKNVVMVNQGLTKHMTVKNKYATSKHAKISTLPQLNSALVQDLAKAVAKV
T2 sequence (Q00535 whole entry): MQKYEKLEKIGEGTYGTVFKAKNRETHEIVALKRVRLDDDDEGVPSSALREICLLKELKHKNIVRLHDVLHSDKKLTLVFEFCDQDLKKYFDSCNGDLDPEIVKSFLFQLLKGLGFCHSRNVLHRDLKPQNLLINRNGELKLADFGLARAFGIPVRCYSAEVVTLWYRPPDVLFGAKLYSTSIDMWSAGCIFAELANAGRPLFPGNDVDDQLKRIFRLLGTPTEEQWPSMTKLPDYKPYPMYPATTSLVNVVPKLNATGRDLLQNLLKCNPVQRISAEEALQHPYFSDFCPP
T2 sequence (Q15078 99-307 partner limits assumed): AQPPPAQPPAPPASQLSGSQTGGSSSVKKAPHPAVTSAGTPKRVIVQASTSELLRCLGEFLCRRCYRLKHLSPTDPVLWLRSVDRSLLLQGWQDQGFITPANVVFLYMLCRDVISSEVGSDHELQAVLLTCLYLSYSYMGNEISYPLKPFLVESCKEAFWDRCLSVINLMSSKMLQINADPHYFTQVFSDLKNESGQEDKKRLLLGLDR
T3 sequence (P50613 whole entry): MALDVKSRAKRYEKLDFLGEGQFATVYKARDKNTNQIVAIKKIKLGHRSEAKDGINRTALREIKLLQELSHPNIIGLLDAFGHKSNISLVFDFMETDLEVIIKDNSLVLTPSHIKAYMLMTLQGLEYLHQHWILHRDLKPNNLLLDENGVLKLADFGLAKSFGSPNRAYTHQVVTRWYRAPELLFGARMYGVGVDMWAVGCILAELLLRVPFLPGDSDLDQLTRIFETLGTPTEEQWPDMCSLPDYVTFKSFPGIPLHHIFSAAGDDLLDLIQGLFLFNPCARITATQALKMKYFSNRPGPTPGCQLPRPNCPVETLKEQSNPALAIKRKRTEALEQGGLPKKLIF
T3 sequence (P51946 whole entry partner): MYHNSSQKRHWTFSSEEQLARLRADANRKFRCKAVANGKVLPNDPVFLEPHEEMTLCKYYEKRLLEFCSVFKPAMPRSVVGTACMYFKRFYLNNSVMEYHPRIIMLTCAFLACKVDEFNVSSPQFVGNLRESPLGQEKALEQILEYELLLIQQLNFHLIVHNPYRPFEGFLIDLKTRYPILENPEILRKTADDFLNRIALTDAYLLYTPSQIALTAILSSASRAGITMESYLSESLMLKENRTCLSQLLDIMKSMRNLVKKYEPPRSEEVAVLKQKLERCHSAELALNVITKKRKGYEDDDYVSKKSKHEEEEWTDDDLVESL
T3 sequence (P51948 whole entry partner): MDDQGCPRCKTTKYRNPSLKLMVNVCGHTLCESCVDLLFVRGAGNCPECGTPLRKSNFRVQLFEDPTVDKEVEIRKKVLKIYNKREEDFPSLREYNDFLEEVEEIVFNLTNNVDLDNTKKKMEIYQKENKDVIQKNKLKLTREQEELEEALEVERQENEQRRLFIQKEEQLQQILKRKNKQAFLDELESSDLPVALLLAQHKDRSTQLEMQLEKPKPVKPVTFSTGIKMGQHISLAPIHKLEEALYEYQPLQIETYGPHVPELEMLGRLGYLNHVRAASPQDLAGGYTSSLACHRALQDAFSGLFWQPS

SMILES | IC50 [1] | IC50 [2] | IC50 [3] | CDK1/CDK7: Selectivity of CDK7 inhibition over CDK1 inhibition [3] | CDK2/CDK7: Selectivity of CDK7 inhibition over CDK2 inhibition [3] | CDK5/CDK7: Selectivity of CDK7 inhibition over CDK5 inhibition [3] | IC50 [4]
C=C(F)C(=O)Nc1ccc2c(-c3ccccc3CNc3nc(N[C@H]4CC[C@H](NC)CC4)nc4c(C(C)C)cnn34)nccc2c1 [Compound 146] | > 1000 nM | > 1000 nM | < 100 nM | A (A indicates [fold] > 500) | A (A indicates [fold] > 500) | A (A indicates [fold] > 500) | > 1000 nM
Cc1cccc(-c2ccc3cccc(NC(=O)/C=C/CN(C)C)c3n2)c1CNc1nc(NCC2CCNCC2)nc2c(C(C)C)cnn12 [Compound 138] | > 1000 nM | > 1000 nM | < 100 nM | A (A indicates [fold] > 500) | A (A indicates [fold] > 500) | A (A indicates [fold] > 500) | > 1000 nM
COC1CCC(CNc2nc(NCc3ccccc3-c3nccc4cc(NC(=O)/C=C/CN(C)C)ccc34)n3ncc(C(C)C)c3n2)CC1 (centres unmarked) [Compound 136] | > 1000 nM | > 1000 nM | 100 to 1000 nM | B (B indicates 50 < [fold] ≤ 500) | B (B indicates 50 < [fold] ≤ 500) | B (B indicates 50 < [fold] ≤ 500) | > 1000 nM
COC[C@H]1CC[C@H](Nc2nc(NCc3ccccc3-c3nccc4cc(NC(=O)/C=C/CN(C)C)ccc34)n3ncc(C(C)C)c3n2)CC1 [Compound 142] | > 1000 nM | > 1000 nM | < 100 nM | A (A indicates [fold] > 500) | A (A indicates [fold] > 500) | A (A indicates [fold] > 500) | > 1000 nM
Cc1cccc(-c2cc3cccc(NC(=O)/C=C/CN(C)C)c3[nH]2)c1CNc1nc(NCC2CCNCC2)nc2c(C(C)C)cnn12 [Compound 139] | > 1000 nM | > 1000 nM | < 100 nM | A (A indicates [fold] > 500) | A (A indicates [fold] > 500) | A (A indicates [fold] > 500) | > 1000 nM
CO[C@H]1CC[C@H](Nc2nc(NCc3ccccc3-c3nccc4cc(NC(=O)/C=C/CN5CCCCC5)ccc34)n3ncc(C(C)C)c3n2)CC1 [Compound 155] | > 1000 nM | > 1000 nM | < 100 nM | A (A indicates [fold] > 500) | A (A indicates [fold] > 500) | A (A indicates [fold] > 500) | > 1000 nM
CN[C@H]1CC[C@H](Nc2nc(NCc3ccccc3-c3nccc4cc(NC(=O)/C=C/CN(C)C)ccc34)n3ncc(C(C)C)c3n2)CC1 [Compound 145] | > 1000 nM | > 1000 nM | < 100 nM | A (A indicates [fold] > 500) | A (A indicates [fold] > 500) | A (A indicates [fold] > 500) | > 1000 nM
CO[C@H]1CC[C@H](Nc2nc(NCc3c(C)cccc3-n3ccc4cc(NC(=O)/C=C/CN(C)C)ccc43)n3ncc(C(C)C)c3n2)CC1 [Compound 140] | > 1000 nM | > 1000 nM | 100 to 1000 nM | B (B indicates 50 < [fold] ≤ 500) | B (B indicates 50 < [fold] ≤ 500) | B (B indicates 50 < [fold] ≤ 500) | > 1000 nM

Continued, values first:

IC50 [1] | IC50 [2] | IC50 [3] | CDK1/CDK7: Selectivity of CDK7 inhibition over CDK1 inhibition [3] | CDK2/CDK7: Selectivity of CDK7 inhibition over CDK2 inhibition [3] | CDK5/CDK7: Selectivity of CDK7 inhibition over CDK5 inhibition [3] | IC50 [4] | SMILES
> 1000 nM | > 1000 nM | 100 to 1000 nM | B (B indicates 50 < [fold] ≤ 500) | B (B indicates 50 < [fold] ≤ 500) | B (B indicates 50 < [fold] ≤ 500) | > 1000 nM | CC(C)c1cnn2c(NCc3ccccc3-c3cc4cccc(NC(=O)/C=C/CN(C)C)c4[nH]3)nc(N3CCC(Nc4nccs4)C3)nc12 (centres unmarked) [Compound 216]
> 1000 nM | > 1000 nM | < 100 nM | A (A indicates [fold] > 500) | A (A indicates [fold] > 500) | A (A indicates [fold] > 500) | > 1000 nM | CNS(=O)(=O)C[C@H]1CC[C@H](Nc2nc(NCc3ccccc3-c3nccc4cc(NC(=O)/C=C/CN(C)C)ccc34)n3ncc(C(C)C)c3n2)CC1 [Compound 134]
> 1000 nM | > 1000 nM | < 100 nM | A (A indicates [fold] > 500) | A (A indicates [fold] > 500) | A (A indicates [fold] > 500) | > 1000 nM | CO[C@H]1CC[C@H](Nc2cc(NCc3ccccc3-c3nccc4cc(NC(=O)/C=C/CN(C)C)ccc34)n3ncc(C(C)C)c3n2)CC1 [Compound 132]
> 1000 nM | > 1000 nM | < 100 nM | B (B indicates 50 < [fold] ≤ 500) | B (B indicates 50 < [fold] ≤ 500) | B (B indicates 50 < [fold] ≤ 500) | > 1000 nM | C=C(F)C(=O)Nc1ccc2c(-c3ccccc3CNc3nc(NC[C@H]4CNCCO4)nc4c(C(C)C)cnn34)nccc2c1 [Compound 148]
> 1000 nM | > 1000 nM | < 100 nM | A (A indicates [fold] > 500) | A (A indicates [fold] > 500) | A (A indicates [fold] > 500) | > 1000 nM | C=C(F)C(=O)Nc1cccc2cc(-c3cccc(C)c3CNc3nc(NCC4CNCCO4)nc4c(C(C)C)cnn34)[nH]c12 (centres unmarked) [Compound 141]
> 1000 nM | > 1000 nM | 100 to 1000 nM | B (B indicates 50 < [fold] ≤ 500) | B (B indicates 50 < [fold] ≤ 500) | B (B indicates 50 < [fold] ≤ 500) | > 1000 nM | CO[C@H]1CC[C@H](Nc2nc(NCc3c(C)cccc3-c3cc4cccc(NC(=O)/C=C/CN(C)C)c4[nH]3)n3ncc(C(C)C)c3n2)CC1 [Compound 129]
